Here are results for two compounds from ChEMBL document CHEMBL3817739, “Synthesis and cytotoxic evaluation of several oleanolic aciduracil/thymine conjugates” (Medchemcomm, 2016).

One assay relates to MCF7. Description: Cytotoxicity against human MCF7 cells assessed as inhibition of cell proliferation after 72 hrs by MTT assay. It counts as functional, cell-based. As to conditions: MCF7, 72 h. A general note: Tetrazolium assays rely on reduction of a dye to a coloured formazan, in cell work by metabolically active cells.
The nature of assay [1]: Cytotoxicity against human PC3 cells assessed as inhibition of cell proliferation after 72 hrs by MTT assay. It counts as functional, cell-based, PC-3. As to conditions: Homo sapiens, PC-3, 72 h; read-out: IC50.
Assay [2] deals with HepG2. Description: Cell cycle arrest in human HepG2 cells assessed as accumulation at S phase at 3 uM after 48 hrs by propidium iodide staining based flow cytometry (reference value: 25.52%). It counts as functional. A general note: A flow cytometer gives signals particle by particle.
For assay [3], the system named is HepG2. Description: Induction of apoptosis in human HepG2 cells assessed as necrotic cells at 4 uM after 24 hrs by Annexin V-FITC/propidium iodide staining based flow cytometry (reference value: 2.7%). It counts as functional.
Assay [4] deals with HepG2. Briefly: Cell cycle arrest in human HepG2 cells assessed as accumulation at G2/M phase at 4 uM after 48 hrs by propidium iodide staining based flow cytometry (reference value: 13.83%). In kind it is functional.
In assay [5] the test system is HepG2. Briefly: Cell cycle arrest in human HepG2 cells assessed as accumulation at G1 phase at 3 uM after 48 hrs by propidium iodide staining based flow cytometry (reference value: 60.65%). It counts as functional.
Assay [6] has as its system HepG2. Briefly: Induction of apoptosis in human HepG2 cells assessed as caspase 3 activation at 4 uM using FITC-DEVD-FMK as probe after 24 hrs by flow cytometry (reference value: 3.3%). In kind it is functional.
Assay [7] has as its system HepG2. Briefly: Induction of apoptosis in human HepG2 cells assessed as karyopyknosis and chromatin condensation at 2 to 4 uM after 24 hrs by Hoechst 33258 staining based fluorescence microscopy. It counts as functional, cell-based.
Assay [8] has as its system HepG2. Description: Disruption of mitochondrial membrane potential in human HepG2 cells after 24 hrs by Rhodamine 123 staining based flow cytometry. It counts as functional, cell-based.
Assay [9] relates to HepG2. Briefly: Induction of apoptosis in human HepG2 cells assessed as late apoptotic cells at 4 uM after 24 hrs by Annexin V-FITC/propidium iodide staining based flow cytometry (reference value: 2.7%). It counts as functional.
For assay [10], the system named is HepG2. Description: Disruption of mitochondrial membrane potential in human HepG2 cells assessed as mitochondrial membrane potential at 4 uM after 24 hrs by Rhodamine 123 staining based flow cytometry (reference value: 86.2%). In kind it is functional.
Assay [11] in a line: Cytotoxicity against human BGC823 cells assessed as inhibition of cell proliferation after 72 hrs by MTT assay. It counts as functional, cell-based. As to conditions: BGC-823, 72 h.
Assay [12] has as its system HepG2. Briefly: Induction of apoptosis in human HepG2 cells assessed as late apoptotic cells at 2 uM after 24 hrs by Annexin V-FITC/propidium iodide staining based flow cytometry (reference value: 2.7%). It counts as functional.
For assay [13], the system named is HepG2. Briefly: Cell cycle arrest in human HepG2 cells assessed as accumulation at S phase at 2 uM after 48 hrs by propidium iodide staining based flow cytometry (reference value: 25.52%). In kind it is functional.
Assay [14] has as its system HepG2. Briefly: Cell cycle arrest in human HepG2 cells assessed as accumulation at G2/M phase at 2 uM after 48 hrs by propidium iodide staining based flow cytometry (reference value: 13.83%). It counts as functional.
For assay [15], the system named is HepG2. Briefly: Induction of apoptosis in human HepG2 cells assessed as early apoptotic cells at 2 uM after 24 hrs by Annexin V-FITC/propidium iodide staining based flow cytometry (reference value: 1.36%). It counts as functional.
The test system of assay [16] is HepG2. Description: Cytotoxicity against human HepG2 cells assessed as inhibition of cell proliferation after 72 hrs by MTT assay. In kind it is functional, cell-based. The conditions noted are these: HepG2, 72 h.
The subject of assay [17] is HepG2. Briefly: Induction of apoptosis in human HepG2 cells assessed as early apoptotic cells at 4 uM after 24 hrs by Annexin V-FITC/propidium iodide staining based flow cytometry (reference value: 1.36%). In kind it is functional.
In assay [18] the test system is HepG2. Description: Disruption of mitochondrial membrane potential in human HepG2 cells assessed as mitochondrial membrane potential at 3 uM after 24 hrs by Rhodamine 123 staining based flow cytometry (reference value: 86.2%). In kind it is functional.
In assay [19] the test system is HepG2. Description: Induction of apoptosis in human HepG2 cells assessed as viable cells at 2 uM after 24 hrs by Annexin V-FITC/propidium iodide staining based flow cytometry (reference value: 93.2%). In kind it is functional. The conditions noted are these: HepG2, 24 h, read-out: Activity.
Assay [20] concerns HepG2. Briefly: Induction of apoptosis in human HepG2 cells assessed as necrotic cells at 2 uM after 24 hrs by Annexin V-FITC/propidium iodide staining based flow cytometry (reference value: 2.7%). In kind it is functional.
Assay [21] relates to HepG2. Briefly: Induction of apoptosis in human HepG2 cells assessed as caspase 9 activation at 4 uM using FITC-LEHD-FMK as probe after 24 hrs by flow cytometry (reference value: 4.4%). It counts as functional.
For assay [22], the system named is HepG2. Briefly: Induction of morphological changes in human HepG2 cells assessed as chromatin condensation and fragmentation at 2 to 4 uM after 24 hrs by acridine orange/ethidium bromide double staining based fluorescence microscopy. In kind it is functional, cell-based.
Assay [23] deals with HepG2. Briefly: Induction of apoptosis in human HepG2 cells assessed as viable cells at 4 uM after 24 hrs by Annexin V-FITC/propidium iodide staining based flow cytometry (reference value: 93.2%). In kind it is functional. As to conditions: HepG2, 24 h, read-out: Activity.
Assay [24] has as its system HepG2. Description: Cell cycle arrest in human HepG2 cells assessed as accumulation at G1 phase at 2 uM after 48 hrs by propidium iodide staining based flow cytometry (reference value: 60.65%). It counts as functional.
Another assay has as its system A549. Briefly: Cytotoxicity against human A549 cells assessed as inhibition of cell proliferation after 72 hrs by MTT assay. It counts as functional, cell-based. The conditions noted are these: A549, 72 h.
Assay [25] relates to HepG2. Description: Cell cycle arrest in human HepG2 cells assessed as accumulation at S phase at 4 uM after 48 hrs by propidium iodide staining based flow cytometry (reference value: 25.52%). It counts as functional.
Assay [26] deals with HepG2. Description: Disruption of mitochondrial membrane potential in human HepG2 cells assessed as mitochondrial membrane potential at 2 uM after 24 hrs by Rhodamine 123 staining based flow cytometry (reference value: 86.2%). In kind it is functional.
The subject of assay [27] is HepG2. Briefly: Cell cycle arrest in human HepG2 cells assessed as accumulation at G1 phase at 4 uM after 48 hrs by propidium iodide staining based flow cytometry (reference value: 60.65%). In kind it is functional.
Assay [28] relates to HepG2. Briefly: Cell cycle arrest in human HepG2 cells assessed as accumulation at G2/M phase at 3 uM after 48 hrs by propidium iodide staining based flow cytometry (reference value: 13.83%). It counts as functional.

The structures appear in SMILES notation. Activity calls are given as the source filed them. No cut-off for these calls is given here. A value given as a limit tells only on which side of the number the result lay.

In the case of `CC1(C)CC[C@]2(C(=O)OCCCCCCn3ccc(=O)[nH]c3=O)CC[C@]3(C)C(=CC[C@@H]4[C@@]5(C)CC[C@H](O)C(C)(C)[C@@H]5CC[C@]43C)[C@@H]2C1`, the IC50 in the assay on MCF7 worked out at 2.75 µM; in [1], 0.18 µM; in assay [11], 1.28 µM; with HepG2 [16] it was 3.98 µM; in the assay on A549, 3.16 µM. The Activity is 10.18% with HepG2 [2]; 4.32% in the assay on HepG2 [3]; 3.25% in the assay with HepG2 [4]; 88.09% with HepG2 [5]; 31% in the assay on HepG2 [6]; “Dose-dependent effect” in the assay with HepG2 [8]. In addition, the Activity with HepG2 [9] was found to be 17.7%; in the assay on HepG2 [10], 49.4%; in the assay with HepG2 [12], 7.75%; with HepG2 [13], 6.51%; with HepG2 [14], 0.74%; with HepG2 [15], 1.91%. Further, the Activity in the assay on HepG2 [17] came to 1.83%; in the assay on HepG2 [18], 67%; in the assay with HepG2 [20] it was 2.36%; with HepG2 [21], 27.9%; in the assay on HepG2 [24] it was 92.75%; in the assay on HepG2 [25], 14.27%. The Activity in the assay with HepG2 [26] is on record as 77.7%; in the assay on HepG2 [27], 82.48%; in the assay on HepG2 [28], 1.73%. Also, the outcome in the assay on HepG2 [7] and in the assay with HepG2 [22] was Active. Besides, in the assay with HepG2 [19], the viability at 2 µM was 88%. Besides, the viability at 4 µM in the assay on HepG2 [23] worked out at 76.1%.

Turning to `Cc1cn(CCCCOC(=O)[C@]23CCC(C)(C)C[C@H]2C2=CC[C@@H]4[C@@]5(C)CC[C@H](O)C(C)(C)[C@@H]5CC[C@@]4(C)[C@]2(C)CC3)c(=O)n(CCCCOC(=O)[C@]23CCC(C)(C)C[C@H]2C2=CC[C@@H]4[C@@]5(C)CC[C@H](O)C(C)(C)[C@@H]5CC[C@@]4(C)[C@]2(C)CC3)c1=O`, the IC50 in the assay on MCF7 is 3.69 µM; in assay [1], 1.28 µM; in assay [11], 16 µM; in the assay with HepG2 [16], 3.02 µM; in the assay on A549, less than 0.1 µM.

By IC50 is commonly meant the concentration needed to halve the response being measured.
